Measured values taken from ChEMBL document CHEMBL1201862, “PubChem BioAssay data set” (2004).
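All cell lines were grown in 96-well plates and treated with compound for 48 hours. GI50: concentration for 50% inhibition of growth.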 Active and inactive are the calls of the source. Cut-off read from the data, not from the text of the source: active = GI50 up to about 1.1 µM and inactive = higher.

Experiments:
Test in all cases: inhibition of tumour cell growth, NCI panel, 48 h
M14 = test system: M14
CAKI-1 = test system: CAKI-1
HL-60 = test system: HL-60
SK-MEL-5 = test system: SK-MEL-5
ACHN = test system: ACHN
OVCAR-4 = test system: OVCAR-4
EKVX = test system: EKVX
SK-MEL-2 = test system: SK-MEL-2
HOP-92 = test system: HOP-92
COLO 205 = test system: COLO 205
NCI/ADR-RES = test system: NCI/ADR-RES
PC-3 = test system: PC-3
T47D = test system: T47D
NCI-H226 = test system: NCI-H226
UO-31 = test system: UO-31
OVCAR-8 = test system: OVCAR-8
SR = test system: SR
OVCAR-5 = test system: OVCAR-5
Malme-3M = test system: Malme-3M

Row | Structure (SMILES) | GI50 (M14) | GI50 (CAKI-1) | GI50 (HL-60) | GI50 (SK-MEL-5) | GI50 (ACHN) | GI50 (OVCAR-4) | GI50 (EKVX) | GI50 (SK-MEL-2) | GI50 (HOP-92) | GI50 (COLO 205) | GI50 (NCI/ADR-RES) | GI50 (PC-3) | GI50 (T47D) | GI50 (NCI-H226) | GI50 (UO-31) | GI50 (OVCAR-8) | GI50 (SR) | GI50 (OVCAR-5) | GI50 (Malme-3M)
1 | COc1cc2c(c(OC)c1OC)-c1ccc(=O)c(O)cc1[C@@H](NC(C)=O)CC2 [COLCHICEINE] | 24.7 µM (inactive) | 12.6 µM (inactive) | 4.99 µM (inactive) | 7.66 µM (inactive) | 18.1 µM (inactive) | 12.6 µM (inactive) | 19.7 µM (inactive) | 25.5 µM (inactive) | 20.2 µM (inactive) | 19.4 µM (inactive) | 6.98 µM (inactive) | 17.8 µM (inactive) | 5.51 µM (inactive) | 19.7 µM (inactive) | 17.6 µM (inactive) | 13.3 µM (inactive) | 2.99 µM (inactive) | 33.5 µM (inactive) | –
2 | CC1=NN(c2nc(N)nc(CF)n2)C(C)(C)C1 | > 100 µM (inactive) | > 100 µM (inactive) | > 100 µM (inactive) | > 100 µM (inactive) | > 100 µM (inactive) | > 100 µM (inactive) | > 100 µM (inactive) | > 100 µM (inactive) | > 100 µM (inactive) | > 100 µM (inactive) | > 100 µM (inactive) | > 100 µM (inactive) | > 100 µM (inactive) | > 100 µM (inactive) | > 100 µM (inactive) | > 100 µM (inactive) | > 100 µM (inactive) | – | –
3 | Cc1ccc(S(=O)(=O)NCCCCC(N)C(=O)O)cc1 (stereo not drawn) | > 100 µM (inactive) | > 100 µM (inactive) | – | > 100 µM (inactive) | > 100 µM (inactive) | > 100 µM (inactive) | > 100 µM (inactive) | – | > 100 µM (inactive) | > 100 µM (inactive) | > 100 µM (inactive) | > 100 µM (inactive) | > 100 µM (inactive) | > 100 µM (inactive) | > 100 µM (inactive) | > 100 µM (inactive) | – | > 100 µM (inactive) | > 100 µM (inactive)
4 | COC(=O)C1(C)C=CC(=O)C2(C)C1C(O)C1OC3CC(c4ccoc4)C(C)=C3C1(C)C2CC(=O)O (stereo not drawn) | > 100 µM (inactive) | > 100 µM (inactive) | > 100 µM (inactive) | > 100 µM (inactive) | > 100 µM (inactive) | > 100 µM (inactive) | > 100 µM (inactive) | > 100 µM (inactive) | > 100 µM (inactive) | > 100 µM (inactive) | > 100 µM (inactive) | > 100 µM (inactive) | > 100 µM (inactive) | – | > 100 µM (inactive) | > 100 µM (inactive) | – | > 100 µM (inactive) | > 100 µM (inactive)
5 | C(=N/Nc1ccc(-c2nc3ccccc3[nH]2)cc1)/c1c(-c2ccccc2)[nH]c2ccccc12 | 0.215 µM (active) | 0.53 µM (active) | 0.211 µM (active) | 0.311 µM (active) | 0.575 µM (active) | 2.78 µM (inactive) | 3.16 µM (inactive) | 0.199 µM (active) | > 100 µM (inactive) | – | 0.286 µM (active) | 0.311 µM (active) | 28.8 µM (inactive) | 0.408 µM (active) | 0.405 µM (active) | 0.698 µM (active) | 0.12 µM (active) | – | –
6 | COC(=O)C1CC2(CCC1=O)Cc1ccccc1C2=O (stereo not drawn) | > 100 µM (inactive) | > 100 µM (inactive) | > 100 µM (inactive) | > 100 µM (inactive) | > 100 µM (inactive) | > 100 µM (inactive) | 89.5 µM (inactive) | > 100 µM (inactive) | – | > 100 µM (inactive) | 99.5 µM (inactive) | > 100 µM (inactive) | > 100 µM (inactive) | 47.4 µM (inactive) | > 100 µM (inactive) | > 100 µM (inactive) | 37.8 µM (inactive) | > 100 µM (inactive) | > 100 µM (inactive)
7 | CN1C(=O)[C@@]2(C=CC3(CC2)OCCO3)c2ccccc21 | > 50 µM (inactive) | > 50 µM (inactive) | 35.7 µM (inactive) | > 50 µM (inactive) | 49.5 µM (inactive) | > 50 µM (inactive) | 49.2 µM (inactive) | > 50 µM (inactive) | > 50 µM (inactive) | > 50 µM (inactive) | > 50 µM (inactive) | > 45.4 µM (inactive) | 35 µM (inactive) | > 50 µM (inactive) | > 50 µM (inactive) | > 50 µM (inactive) | > 50 µM (inactive) | > 50 µM (inactive) | –
8 | COc1ccc(CN2C(=O)CCC/C=C\[C@H]2CI)cc1 | 10.7 µM (inactive) | 10.3 µM (inactive) | – | 12.6 µM (inactive) | 14.3 µM (inactive) | 10.9 µM (inactive) | 10.7 µM (inactive) | 11 µM (inactive) | 12.8 µM (inactive) | 13.9 µM (inactive) | 13.7 µM (inactive) | 8.07 µM (inactive) | 0.286 µM (active) | 12.9 µM (inactive) | 11.6 µM (inactive) | 14.4 µM (inactive) | 11.5 µM (inactive) | 12.1 µM (inactive) | 11.1 µM (inactive)
